# Results: patent US20030008857A1, “Photodynamic therapy (PDT) in combination with factors that bind cell surface apoptosis-inducing receptors” (priority 1999, published 2003)
# Legend:
# HeLa/Bcl-2 cells = experiment: MTT cell viability assay; format: cell-based
# Experimental: (§1) HeLa cells were from the American Type Culture Collection (Manassas, Va.). Cells were grown in Dulbecco's modified Eagles medium (DMEM) supplemented with penicillin (100 U/ml), streptomycin (100 μg/ml), 2 mM L-glutamine, 1 mM HEPES buffer, and 10% heat-inactivated fetal bovine serum (FBS). HeLa cells over-expressing Bcl-2 and Bcl-xL were generated as described (Vander Heiden et al.). Briefly, Bcl-2 and Bcl-xL inserts were cloned into an EcoRI site of a pSFFV-neo vector (Fuhlbrigge et al.). Vectors containing inserts, or no insert (neo), were transfected into HeLa cells by electroporation. After selection in G418 (Gibco/BRL Life Technologies), cells were cloned by limiting dilution and transfectants screened for Bcl-xL or Bcl-2 by Western blot analysis. Transfected cell lines were maintained in complete DMEM with G418 (10 μg/ml).
# (§2) For treatments with TRAIL and PDT, cells were incubated with 0-100 ng/ml verteporfin for 60 min at 37° C. in complete DMEM with 2% FBS or incubated with medium alone. Cells were light protected or exposed to blue fluorescent light to give a total dose of 1 J/cm^2. For experiments where cells were treated with 0-1000 ng/ml TRAIL (BIOMOL, Plymouth Meeting, Pa.), this compound was added immediately after light treatment to HeLa cells in complete DMEM with 10% FBS. Cells were maintained at 37° C. with 5% CO2
# (§3) To assess their viability, cells were cultured in 96-well microtiter plates and the MTT (3-(4,5)-dimethylthiazol-2-yl)-2,5-diphenyl tetrazolium bromide) calorimetric assay was performed as described (Mosmann et al.) with modifications. Following treatment, culture medium was decanted and replaced with complete DMEM containing 10% FBS. At 24 h following treatment, culture medium was aspirated and 50 μg of MTT in 100 μl of DMEM containing 2% FBS was added to each well. The reaction was stopped 2 h later by the addition of 150 μl of acidified isopropanol. Color development was measured at 590 nm with a microtiter plate reader. The result obtained for PDT, TRAIL or TRAIL plus PDT treatments was compared to the MTT value obtained for cells not given any treatment and expressed as percentages (%) of the control result.
# HeLa/Bcl-xL cells = experiment: MTT cell viability assay; format: cell-based
# Experimental: as §1, §2, §3
# HeLa/neo cells = experiment: MTT cell viability assay; format: cell-based
# Experimental: as §1, §2, §3
# Jurkat T cells = experiment: DNA fragmentation (sub-diploid DNA) by PI staining and flow cytometry; format: cell-based, human; details: for cells exhibiting DNA fragmentation (sub-diploid DNA levels): 690 nm light 5 J/cm^2, analysis 24 hours later
# Experimental: The human Jurkat T cell line containing a neomycin resistance gene was obtained from Dr. Charles Rudin (University of Chicago). Cells were maintained in RPMI 1640 medium containing 10% heat-inactivated fetal calf serum (FCS) with penicillin (100 U/mL), streptomycin (100 μg/mL), 20 mM HEPES, 2 mM L-glutamine and G418 (1 μg/ml) purchased from Gibco BRL (Burlington, Ontario) in a CO2 incubator at 37° C. To elicit apoptosis with PDT, Jurkat cells were incubated with different amounts of liposomally formulated benzoporphyrin derivative monoacid ring A (BPD-MA, verteporfin, QLT PhotoTherapeutics, Inc., Vancouver, Canada) for one hour at 37° C. under light-protected conditions. The culture medium used for experiments was identical to that used for the passage of the cells except that FCS was used at a concentration of 5%. Experiments were conducted either in 6-well culture plates at 5×10^6 cells in a volume of 4 ml per well or in 96-well microtiter plates at 1×10^5 cells per well at 0.2 ml per well. Cells were irradiated with light of a wavelength of 690 nm delivered at 65-73 mW/sec from light emitting diodes (LED) to achieve a total light dose of 5 J/cm^2. Cells were returned to the incubator until required for analysis.
# FasL and TRAIL as used were recombinant preparations. FasL was obtained from Upstate Biotechnology (Lake Placid NY) and corresponded to amino acids 103-281 of the soluble domain of human FasL. TRAIL was obtained from BIOMOL Research Laboratories (Plymouth Meeting, Pa.) and corresponded to residues 114-281 of the soluble domain of human TRAIL. FasL and TRAIL were usually added immediately following the treatment of cells with PDT, although in one series of experiments these factors were added at 1, 2 or 3 hours post-irradiation.
# The proportion of cells containing sub-diploid levels of DNA 24 hours following treatment was determined using a propidium iodide (“PI”) fluorescence analysis procedure as described by Telford et al. (“Rapid Quantitation of Apoptosis in Pure and Heterogeneous Cell Populations Using Flow Cytometry” J. Immunol Methods 172:1-6 (1994)) or by Darzynkieicz et al. (“Features of Apoptotic Cells Measured by Flow Cytometry”, Cytometry, 13:795-808 (1992)).
# Twenty four hours following PDT, 5×10^5 cells were washed twice with ice-cold PBS and then permeablized and fixed in 80% ethanol at 4° C. for one hour. The cells were again washed in ice-cold PBS and stained with PI (50 μg/mL) in PBS with simultaneous deoxyribose nuclease-free ribonuclease A (5 U/mL) treatment. These samples were analyzed by flow cytometry. The percentage of apoptotic cells was calculated using single color analysis for PI fluorescence with a Coulter XL flow cytometer (Coulter Electronics, Inc., Hialeah, Fla.). […] The degree of separation between the apoptotic population and the G0/G1 peak is readily apparent and the percentage of apoptotic cells is determined from the subsequent histogram.
# [1] = TRAIL in combination with verteporfin PDT, 24 hours
# [2] = TRAIL up to 25 ng/ml, 24 hours post-treatment
# [3] = PDT with verteporfin at 25 or 50 ng/ml, blue fluorescent light 1 J/cm^2, 24 hours
substance,measurement,setting,value
"TRAIL: recombinant, residues 114-281 of the soluble domain of human TRAIL (BIOMOL)",cell viability,"HeLa/Bcl-2 cells; TRAIL at 500 ng/ml, 24 hours",a significant degree of protection against TRAIL
same,cell viability compared with PDT or TRAIL alone and with the expected additive effect,HeLa/Bcl-2 cells; [1],significantly decreased cell viability
same,cell viability,HeLa/Bcl-2 cells; [2],little or no loss of cell viability
same,cell viability,"HeLa/Bcl-xL cells; TRAIL at 500 ng/ml, 24 hours",a significant degree of protection against TRAIL
same,cell viability compared with PDT or TRAIL alone and with the expected additive effect,HeLa/Bcl-xL cells; [1],significantly decreased cell viability
same,cell viability,HeLa/Bcl-xL cells; [2],little or no loss of cell viability
same,cell viability,"HeLa/neo cells; TRAIL at 500 ng/ml, 24 hours",a complete loss of viability
same,cell viability,"HeLa/neo cells; TRAIL at 50 and 100 ng/ml, 24 hours",a loss in viability
same,cell viability compared with PDT or TRAIL alone and with the expected additive effect,HeLa/neo cells; [1],significantly decreased cell viability
same,cell viability,HeLa/neo cells; [2],little or no loss of cell viability
same,increase in proportion of cells with sub-diploid DNA versus light-treated control cells,"Jurkat T cells; TRAIL 20 ng/ml added after PDT with verteporfin 2 ng/ml, 5 J/cm^2, 24 hours",approximately eight-fold
same,increase in the number of cells displaying DNA fragmentation,"Jurkat T cells; TRAIL 20 ng/ml by itself, 24 hours (FIG. 2)",two-fold
same,proportion of cells with sub-diploid DNA compared with PDT alone,Jurkat T cells; TRAIL 20 ng/ml or FasL 7.5 ng/ml added after PDT with verteporfin 0.5 and 1 ng/ml,a greater proportion of cells contained a sub-diploid level of DNA
same,nature of the combined effect on DNA fragmentation,Jurkat T cells; TRAIL 20 ng/ml with PDT (verteporfin 2 ng/ml) versus each alone,greater than additive
same,cells with induced DNA fragmentation,"Jurkat T cells; TRAIL 1000 ng/ml, within 24 hours",approximately 60%
same,DNA fragmentation induced by the factor without PDT across addition times,"Jurkat T cells; added at 5 minutes, 1, 2 or 3 hours, FasL 7.5 ng/ml, TRAIL 20 ng/ml, individually or in combination",a comparable level of DNA fragmentation
same,change of the combined effect with PDT on DNA fragmentation,Jurkat T cells; factor added at 3 hours post-PDT (verteporfin 2 ng/ml),a modest decline
same,capacity to accentuate PDT-mediated apoptosis (DNA fragmentation),"Jurkat T cells; factor added up to 3 hours after PDT (verteporfin 2 ng/ml), FasL 7.5 ng/ml, TRAIL 20 ng/ml",still demonstrable
"benzoporphyrin derivative monoacid ring A [verteporfin, reference compound]",cell viability,HeLa/Bcl-2 cells; [3],some loss in viability
same,cell viability,HeLa/Bcl-xL cells; [3],some loss in viability
same,cell viability,HeLa/neo cells; [3],some loss in viability
same,cells exhibiting DNA fragmentation relative to cells treated with light alone,"Jurkat T cells; verteporfin 2 ng/ml, light 5 J/cm^2, 24 hours",Five times
same,cells exhibiting DNA fragmentation (sub-diploid DNA levels),Jurkat T cells; verteporfin 5 ng/ml,a minor proportion of cells
same,cells exhibiting DNA fragmentation (sub-diploid DNA levels),Jurkat T cells; verteporfin 15 ng/ml,the vast majority of cells
